Patent US9340511B2, “Process for making isoquinoline compounds” (FIBROGEN, INC., priority 2012, dated 2016)

System: Hep3B cells
Experiment: Cell-Based EPO Assay
Set-up: species or system human
Details: 30 μM compound in DMSO compared to DMSO only control, 72 hours, value minus vehicle control
Experimental: Cell-Based EPO Assay Hep3B cells (human hepatocellular carcinoma cells from ATCC, cat # HB-8064) were plated at 25,000 cells per well 96 well plates. The next day, the cells were washed once with DMEM (Cellgro, cat #10-013-CM)+0.5% fetal bovine serum (Cellgro, cat #35-010-CV) and incubated with various concentrations of compound or vehicle control (0.15% DMSO) in DMEM+0.5% fetal bovine serum for 72 hours. Cell free culture supernatants were generated by transfer to a conical bottom 96 well plate and centrifugation for 5 minutes at 2000 rpm. The supernatant was quantitated for EPO using a human EPO ELISA kit (R&D Systems, cat # DEP 00). The EPO values for the compounds reported herein (e.g., Table 1) are the measured value for cells plus compound minus the value for the vehicle control for the same cell preparation. The EPO values for the vehicle control for the cell preparations used in experiments reported herein varied from 0-12.5 mIU/ml.

COc1ccc(Oc2ccc3c(C)nc(C(=O)NCC(=O)O)c(O)c3c2)cc1 [Compound 6f, 2-[4-hydroxy-1-methyl-6-(4-methoxy-phenoxy)-isoquinoline-3-carboxamido]acetic acid]
Cell EPO* (mIU/ml): 191 mIU/ml

Cc1nc(C(=O)NCC(=O)O)c(O)c2cccc(Oc3ccccc3)c12 [Compound 4f, 2-(4-hydroxy-1-methyl-8-phenoxyisoquinoline-3-carboxamido)acetic acid]
Cell EPO* (mIU/ml): 52 mIU/ml

Cc1nc(C(=O)NCC(=O)O)c(O)c2c(Oc3ccccc3)cccc12 [Compound 1f, 2-(4-hydroxy-1-methyl-5-phenoxyisoquinoline-3-carboxamido)acetic acid]
Cell EPO* (mIU/ml): 98.6 mIU/ml

Cc1nc(C(=O)NCC(=O)O)c(O)c2cc(Oc3cc(F)cc(F)c3)ccc12 [Compound 8f, 2-[4-hydroxy-1-methyl-6-(3,5-difluoro-phenoxy)-isoquinoline-3-carboxamido]acetic acid]
Cell EPO* (mIU/ml): 105 mIU/ml

Cc1nc(C(=O)NCC(=O)O)c(O)c2cc(Oc3ccccc3)ccc12 [Compound 2f, 2-(4-hydroxy-1-methyl-6-phenoxyisoquinoline-3-carboxamido)acetic acid]
Cell EPO* (mIU/ml): 78 mIU/ml

COc1ccc(Oc2ccc3c(O)c(C(=O)NCC(=O)O)nc(C)c3c2)cc1 [Compound 5f, 2-[4-hydroxy-1-methyl-7-(4-methoxy-phenoxy)-isoquinoline-3-carboxamido]acetic acid]
Cell EPO* (mIU/ml): 209 mIU/ml

Cc1nc(C(=O)NCC(=O)O)c(O)c2ccc(Oc3cc(F)cc(F)c3)cc12 [Compound 7f, 2-[4-hydroxy-1-methyl-7-(3,5-difluoro-phenoxy)-isoquinoline-3-carboxamido]acetic acid]
Cell EPO* (mIU/ml): 225 mIU/ml
